The values below come from ChEMBL document CHEMBL5465560, “Selectivity Literature for EUbOPEN Chemogenomic Library” (2024).

The target of assay [1] is RAC-gamma serine/threonine-protein kinase (Homo sapiens, UniProt Q9Y243). Briefly: Selectivity interaction (Rxn Biology Kinase assay) EUB0001632a AKT3. The conditions noted are these: at 10 µM.
Assay [2] addresses Ribosomal protein S6 kinase alpha-3 (Homo sapiens, UniProt P51812). Description: Selectivity interaction (ActivX KiNativ screen (ex vivo kinase selectivity in human PBMCs)) EUB0001619a RPS6KA3. The format is cell-based. As to conditions: PBMC, at 1 µM.
The test system of assay [3] is Epidermal growth factor receptor (Homo sapiens), P00533 [UNDEFINED MUTATION]. Description: Selectivity interaction (KinomeScan (DiscoverX)) EUB0000666a EGFR. The conditions noted are these: at 10 µM.
Assay [4] addresses T1, Interleukin-1 receptor-associated kinase 4 (Homo sapiens, UniProt Q9NWZ3).
T1 sequence (Q9NWZ3 whole entry): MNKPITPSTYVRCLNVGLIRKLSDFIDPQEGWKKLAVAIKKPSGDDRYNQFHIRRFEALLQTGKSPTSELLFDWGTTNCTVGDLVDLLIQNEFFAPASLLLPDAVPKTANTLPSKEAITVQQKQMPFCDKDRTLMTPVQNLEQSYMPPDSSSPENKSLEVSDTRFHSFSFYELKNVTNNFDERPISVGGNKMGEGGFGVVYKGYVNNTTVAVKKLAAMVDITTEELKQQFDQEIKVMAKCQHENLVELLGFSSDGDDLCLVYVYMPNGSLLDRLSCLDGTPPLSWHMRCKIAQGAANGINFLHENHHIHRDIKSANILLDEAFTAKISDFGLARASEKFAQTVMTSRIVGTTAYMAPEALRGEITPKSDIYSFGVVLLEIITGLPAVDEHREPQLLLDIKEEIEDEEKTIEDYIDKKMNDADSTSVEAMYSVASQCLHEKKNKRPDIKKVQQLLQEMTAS
Description: Selectivity interaction (Enzymatic assay) EUB0001550a IRAK4.

For assay [5], the target named is Myosin light chain kinase, smooth muscle (Homo sapiens, UniProt Q15746). As to conditions: at 10 µM.
Assay [6] addresses T2, Serine/threonine-protein kinase D3 (Homo sapiens) (UniProt O94806).
T2 sequence (whole entry): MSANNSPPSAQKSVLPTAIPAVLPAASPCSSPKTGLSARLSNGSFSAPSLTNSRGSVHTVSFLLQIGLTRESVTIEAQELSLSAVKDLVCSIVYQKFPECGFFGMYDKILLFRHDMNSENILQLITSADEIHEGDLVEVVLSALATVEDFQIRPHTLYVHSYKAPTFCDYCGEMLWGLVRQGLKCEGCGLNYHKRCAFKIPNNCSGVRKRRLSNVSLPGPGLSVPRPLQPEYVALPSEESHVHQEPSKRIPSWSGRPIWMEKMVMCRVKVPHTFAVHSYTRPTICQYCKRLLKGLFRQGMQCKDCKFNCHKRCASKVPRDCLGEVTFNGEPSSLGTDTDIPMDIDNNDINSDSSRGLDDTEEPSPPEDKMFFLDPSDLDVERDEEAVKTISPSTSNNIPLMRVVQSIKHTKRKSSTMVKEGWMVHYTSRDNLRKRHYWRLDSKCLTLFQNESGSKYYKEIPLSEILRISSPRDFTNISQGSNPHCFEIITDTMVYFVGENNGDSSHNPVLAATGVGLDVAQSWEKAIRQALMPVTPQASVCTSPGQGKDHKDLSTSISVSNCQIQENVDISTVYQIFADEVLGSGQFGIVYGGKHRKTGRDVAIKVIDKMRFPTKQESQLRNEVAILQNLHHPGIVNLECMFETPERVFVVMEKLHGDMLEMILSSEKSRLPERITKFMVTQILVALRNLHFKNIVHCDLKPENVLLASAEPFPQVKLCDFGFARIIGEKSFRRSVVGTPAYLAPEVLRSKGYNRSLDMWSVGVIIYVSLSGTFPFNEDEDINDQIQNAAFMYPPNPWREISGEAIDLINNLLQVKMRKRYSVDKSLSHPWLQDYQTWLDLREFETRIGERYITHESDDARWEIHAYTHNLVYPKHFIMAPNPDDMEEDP
Description: Selectivity interaction (ActivX KiNativ screen (kinase selectivity in THP-1 cell lysates)) EUB0000639a PRKD3. The format is subcellular. As to conditions: lysate, at 0.04 µM.

In assay [7] the target is T3, Dual specificity tyrosine-phosphorylation-regulated kinase 3 (Homo sapiens) (UniProt O43781).
T3 sequence (whole entry): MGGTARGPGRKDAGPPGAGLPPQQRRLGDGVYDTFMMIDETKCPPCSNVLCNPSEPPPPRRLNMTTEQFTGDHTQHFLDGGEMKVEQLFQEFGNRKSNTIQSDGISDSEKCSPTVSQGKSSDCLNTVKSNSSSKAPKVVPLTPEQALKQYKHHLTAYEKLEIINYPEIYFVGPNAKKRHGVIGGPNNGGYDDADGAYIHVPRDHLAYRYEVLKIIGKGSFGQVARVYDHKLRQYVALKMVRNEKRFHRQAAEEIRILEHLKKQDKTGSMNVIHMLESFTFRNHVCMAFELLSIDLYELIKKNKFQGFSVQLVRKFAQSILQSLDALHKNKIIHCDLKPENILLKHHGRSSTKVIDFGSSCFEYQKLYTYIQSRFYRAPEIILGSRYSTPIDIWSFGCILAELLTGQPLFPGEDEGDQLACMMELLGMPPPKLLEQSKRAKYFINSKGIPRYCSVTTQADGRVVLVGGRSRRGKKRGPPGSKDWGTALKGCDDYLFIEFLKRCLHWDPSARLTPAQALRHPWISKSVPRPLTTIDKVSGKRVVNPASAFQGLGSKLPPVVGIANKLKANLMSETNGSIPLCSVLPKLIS
Description: Selectivity interaction (Kinase panel (Invitrogen)) EUB0000639a DYRK3. As to conditions: at 200 nM.

Assay [8] deals with Serine/threonine-protein kinase SIK2 (Homo sapiens) (UniProt Q9H0K1). Description: Selectivity interaction (KinomeScan (DiscoverX)) EUB0000045b SIK2.
Chain of Serine/threonine-protein kinase SIK2 (Homo sapiens) (Q9H0K1 whole entry, looked up): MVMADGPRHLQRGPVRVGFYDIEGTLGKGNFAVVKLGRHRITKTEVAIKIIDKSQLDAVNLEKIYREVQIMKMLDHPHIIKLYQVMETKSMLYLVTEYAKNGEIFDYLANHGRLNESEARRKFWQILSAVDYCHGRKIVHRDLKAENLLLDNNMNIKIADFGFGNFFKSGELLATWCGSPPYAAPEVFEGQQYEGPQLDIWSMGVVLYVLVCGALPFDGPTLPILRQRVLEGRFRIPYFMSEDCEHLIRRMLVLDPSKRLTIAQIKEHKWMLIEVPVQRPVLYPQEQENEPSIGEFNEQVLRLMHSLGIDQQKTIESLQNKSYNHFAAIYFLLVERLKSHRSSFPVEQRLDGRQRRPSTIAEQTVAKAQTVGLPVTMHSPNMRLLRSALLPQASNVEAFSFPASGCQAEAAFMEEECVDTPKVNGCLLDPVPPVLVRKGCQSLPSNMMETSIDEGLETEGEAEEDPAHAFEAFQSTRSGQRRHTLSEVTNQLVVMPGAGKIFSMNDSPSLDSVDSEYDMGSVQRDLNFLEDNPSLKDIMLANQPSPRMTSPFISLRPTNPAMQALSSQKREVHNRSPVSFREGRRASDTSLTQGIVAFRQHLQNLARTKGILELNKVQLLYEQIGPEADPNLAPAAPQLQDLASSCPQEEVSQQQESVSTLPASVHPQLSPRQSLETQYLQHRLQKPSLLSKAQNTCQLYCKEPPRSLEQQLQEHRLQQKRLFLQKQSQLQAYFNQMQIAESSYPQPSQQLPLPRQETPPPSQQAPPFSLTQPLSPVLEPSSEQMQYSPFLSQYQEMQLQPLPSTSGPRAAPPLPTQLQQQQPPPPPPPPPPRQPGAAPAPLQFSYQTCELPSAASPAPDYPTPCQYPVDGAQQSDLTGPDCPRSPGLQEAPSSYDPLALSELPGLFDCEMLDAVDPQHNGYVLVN
For assay [9], the target named is Ribosomal protein S6 kinase alpha-6 (Homo sapiens, UniProt Q9UK32). Briefly: Selectivity interaction (Ambit KINOMEscan and KiNATiv profiling in Jurkat cells) EUB0000090b RPS6KA6. In kind it is cell-based. As to conditions: at 1 µM.
Chain of Ribosomal protein S6 kinase alpha-6 (Q9UK32 whole entry): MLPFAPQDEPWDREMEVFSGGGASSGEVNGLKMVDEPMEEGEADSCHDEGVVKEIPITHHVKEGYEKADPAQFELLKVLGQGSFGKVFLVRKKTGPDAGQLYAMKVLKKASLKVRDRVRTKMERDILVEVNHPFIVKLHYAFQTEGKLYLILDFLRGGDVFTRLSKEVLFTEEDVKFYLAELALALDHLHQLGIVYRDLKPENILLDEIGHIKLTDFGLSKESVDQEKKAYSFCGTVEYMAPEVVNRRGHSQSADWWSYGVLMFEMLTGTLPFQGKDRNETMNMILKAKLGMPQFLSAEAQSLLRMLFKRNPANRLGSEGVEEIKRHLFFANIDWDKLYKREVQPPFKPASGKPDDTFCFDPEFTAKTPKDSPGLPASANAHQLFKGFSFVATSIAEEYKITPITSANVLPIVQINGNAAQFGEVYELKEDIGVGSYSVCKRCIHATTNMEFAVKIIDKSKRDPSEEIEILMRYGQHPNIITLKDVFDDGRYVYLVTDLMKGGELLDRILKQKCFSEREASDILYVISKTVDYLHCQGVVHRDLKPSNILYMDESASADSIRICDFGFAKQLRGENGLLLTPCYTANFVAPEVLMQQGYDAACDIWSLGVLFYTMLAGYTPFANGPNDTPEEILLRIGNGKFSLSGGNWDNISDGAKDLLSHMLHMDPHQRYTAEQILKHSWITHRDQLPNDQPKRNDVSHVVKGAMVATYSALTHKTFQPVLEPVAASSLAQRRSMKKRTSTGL
Assay [10] addresses Serine/threonine-protein kinase 25 (Homo sapiens) (UniProt O00506). Description: Selectivity interaction (KinomeScan (DiscoverX)) EUB0000655a STK25. The conditions noted are these: at 10 µM.
In assay [11] the test system is Tyrosine-protein kinase ABL1 (Homo sapiens), P00519 [Q252H]. Description: Selectivity interaction (KinomeScan (DiscoverX)) EUB0000092b ABL1. As to conditions: at 10 µM.
Assay [12] has as its target AP2-associated protein kinase 1 (Homo sapiens, UniProt Q2M2I8). Description: Selectivity interaction (Kinase panel (DSF assay)) EUB0001558a AAK1. A general note: In DSF a fluorescence change marks the thermal transition of the protein.

Chain of Serine/threonine-protein kinase 25 (Homo sapiens) (O00506 whole entry, looked up): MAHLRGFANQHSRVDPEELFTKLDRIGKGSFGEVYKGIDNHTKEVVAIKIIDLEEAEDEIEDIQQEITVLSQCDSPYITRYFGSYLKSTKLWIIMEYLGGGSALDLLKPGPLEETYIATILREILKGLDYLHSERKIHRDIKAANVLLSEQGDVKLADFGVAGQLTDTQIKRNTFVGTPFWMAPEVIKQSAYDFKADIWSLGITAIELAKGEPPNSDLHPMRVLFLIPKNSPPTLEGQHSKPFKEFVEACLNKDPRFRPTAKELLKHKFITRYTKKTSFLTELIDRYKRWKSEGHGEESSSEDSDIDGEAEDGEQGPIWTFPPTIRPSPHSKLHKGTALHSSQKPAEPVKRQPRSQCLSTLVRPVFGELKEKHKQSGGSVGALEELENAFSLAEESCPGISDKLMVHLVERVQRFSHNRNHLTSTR
Chain of AP2-associated protein kinase 1 (Q2M2I8 whole entry, looked up): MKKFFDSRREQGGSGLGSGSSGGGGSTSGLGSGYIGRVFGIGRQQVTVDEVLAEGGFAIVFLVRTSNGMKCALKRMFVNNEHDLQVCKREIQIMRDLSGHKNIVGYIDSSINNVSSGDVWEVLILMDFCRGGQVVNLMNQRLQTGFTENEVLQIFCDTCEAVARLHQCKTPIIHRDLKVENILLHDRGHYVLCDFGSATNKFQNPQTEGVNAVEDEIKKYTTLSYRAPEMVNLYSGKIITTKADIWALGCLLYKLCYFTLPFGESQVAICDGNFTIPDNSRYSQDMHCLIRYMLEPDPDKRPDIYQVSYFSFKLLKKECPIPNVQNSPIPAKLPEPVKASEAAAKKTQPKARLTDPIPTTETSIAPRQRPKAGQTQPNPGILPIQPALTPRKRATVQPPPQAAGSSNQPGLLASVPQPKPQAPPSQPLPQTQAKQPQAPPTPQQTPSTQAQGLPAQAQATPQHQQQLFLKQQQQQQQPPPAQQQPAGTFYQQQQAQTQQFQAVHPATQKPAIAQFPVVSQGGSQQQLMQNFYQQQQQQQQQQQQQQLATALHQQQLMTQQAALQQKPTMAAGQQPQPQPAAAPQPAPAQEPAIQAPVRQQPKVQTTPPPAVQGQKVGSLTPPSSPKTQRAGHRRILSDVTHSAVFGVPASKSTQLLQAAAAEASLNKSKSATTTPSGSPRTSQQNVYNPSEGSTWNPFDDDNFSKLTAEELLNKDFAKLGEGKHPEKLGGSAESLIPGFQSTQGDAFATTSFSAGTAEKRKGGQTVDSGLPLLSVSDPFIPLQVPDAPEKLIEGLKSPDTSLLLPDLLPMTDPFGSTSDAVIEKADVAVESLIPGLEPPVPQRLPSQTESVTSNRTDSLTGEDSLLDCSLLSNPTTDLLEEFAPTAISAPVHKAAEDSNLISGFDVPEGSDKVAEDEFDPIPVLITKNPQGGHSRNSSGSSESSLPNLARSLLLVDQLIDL
Chain of RAC-gamma serine/threonine-protein kinase (Q9Y243 whole entry): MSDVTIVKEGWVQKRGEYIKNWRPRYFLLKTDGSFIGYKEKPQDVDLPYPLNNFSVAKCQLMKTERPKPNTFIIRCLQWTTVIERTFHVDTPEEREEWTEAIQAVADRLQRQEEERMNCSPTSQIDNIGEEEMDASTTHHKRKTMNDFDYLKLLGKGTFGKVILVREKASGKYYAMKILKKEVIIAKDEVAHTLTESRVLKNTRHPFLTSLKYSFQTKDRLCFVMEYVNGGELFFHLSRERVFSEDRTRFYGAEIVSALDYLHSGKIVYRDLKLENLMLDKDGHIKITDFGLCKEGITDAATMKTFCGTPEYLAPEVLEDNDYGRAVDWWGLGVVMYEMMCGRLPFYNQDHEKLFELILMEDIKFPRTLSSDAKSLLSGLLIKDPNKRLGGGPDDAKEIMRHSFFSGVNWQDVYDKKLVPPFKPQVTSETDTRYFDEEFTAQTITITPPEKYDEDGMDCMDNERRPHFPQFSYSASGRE
Chain of Ribosomal protein S6 kinase alpha-3 (P51812 whole entry): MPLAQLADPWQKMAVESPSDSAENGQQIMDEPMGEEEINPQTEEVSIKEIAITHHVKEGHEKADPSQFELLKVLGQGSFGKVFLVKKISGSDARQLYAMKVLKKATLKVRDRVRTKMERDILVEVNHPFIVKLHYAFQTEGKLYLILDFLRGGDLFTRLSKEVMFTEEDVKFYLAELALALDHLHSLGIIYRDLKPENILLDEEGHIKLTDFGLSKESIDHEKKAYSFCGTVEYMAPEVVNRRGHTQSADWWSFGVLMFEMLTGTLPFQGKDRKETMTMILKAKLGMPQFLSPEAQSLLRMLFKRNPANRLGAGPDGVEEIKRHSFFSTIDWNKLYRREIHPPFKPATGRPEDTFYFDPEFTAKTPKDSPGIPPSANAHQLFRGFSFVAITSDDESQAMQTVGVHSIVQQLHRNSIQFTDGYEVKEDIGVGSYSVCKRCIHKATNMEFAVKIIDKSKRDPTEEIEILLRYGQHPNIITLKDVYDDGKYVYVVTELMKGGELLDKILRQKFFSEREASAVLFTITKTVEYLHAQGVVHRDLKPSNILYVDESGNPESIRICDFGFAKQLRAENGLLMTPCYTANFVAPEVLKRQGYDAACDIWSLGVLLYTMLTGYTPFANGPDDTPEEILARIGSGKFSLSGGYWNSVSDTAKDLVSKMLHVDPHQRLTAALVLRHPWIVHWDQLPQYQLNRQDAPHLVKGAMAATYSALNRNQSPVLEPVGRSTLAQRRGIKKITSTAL

On to `Cn1cc(-n2cnc3c(NCc4nc5cc(Cl)c(Cl)cc5[nH]4)nc(N4CCOCC4)nc32)cn1`, for which the % of inhibition in assay [1] is 6.75%.

As for `N#Cc1cccc(-c2c[nH]c3ncnc(N4CCOCC4)c23)c1`, the % of inhibition in assay [2] is -11%.

`O=C(NOC[C@H](O)CO)c1ccc(F)c(F)c1Nc1ccc(I)cc1F` yielded a % of control in assay [3] of 51%.

In the case of `CN(C)CC#Cc1ccc2[nH]c3c(c2c1)-c1nc(N)ncc1CCC3`, the midpoint of inhibition in [4], the IC50, lay at 4.5 µM.

As to `Cc1cc([C@@H](C)Nc2ccccc2C(=O)O)c2nc(N3CCOCC3)cc(=O)n2c1` [AZD-6482], the % of control in assay [5] came to 70%.

Turning to `CC[C@@H]1[C@H](F)C(=O)N[C@@H]1COc1nccc2cc(C(N)=O)c(OC)cc12` [ZIMLOVISERTIB], the % of inhibition in assay [6] was found to be 3.3%; in assay [7] it was 6.43%.

As for `C=CC(=O)Nc1cc(-n2c(=O)ccc3cnc4ccc(-c5ccc(NS(C)(=O)=O)cc5)cc4c32)ccc1C`, the % of control in assay [8] (at 1 µM) and in assay [8] (at 10 µM) was 100% in each case.

Turning to `CN(C)C/C=C/C(=O)Nc1ccc(C(=O)N2CCCC(Nc3ncc(Cl)c(-c4c[nH]c5ccccc45)n3)C2)cc1` (stereo not drawn), the % of control in assay [9] is 92%.

In [10], `CN(C)CCOc1ccc(-c2nc(-c3ccncc3)c(-c3ccc4c(c3)CC/C4=N\O)[nH]2)cc1` had a % of control of 100%.

`CCC(=O)N1CCN(c2ccc(-n3c(=O)ccc4cnc5ccc(-c6cnc7ccccc7c6)cc5c43)cc2C(F)(F)F)CC1` had a % of control in [11] of 99%.

As for `CC(C)(O)[C@H](F)CN1Cc2cc(NC(=O)c3cnn4cccnc34)c(N3CCOCC3)cc2C1=O`, in assay [12], the dTM amounted to 0.2 K.
